The record followed here is article PMC6271978, “1H-2,3-Dihydroperimidine Derivatives: A New Class of Potent Protein Tyrosine Phosphatase 1B Inhibitors” (Molecules, 2013).

For one series, the target named is T1, PTP1B (GST-PTP1B) (Homo sapiens, UniProt P18031).
T1 sequence (P18031 1-435): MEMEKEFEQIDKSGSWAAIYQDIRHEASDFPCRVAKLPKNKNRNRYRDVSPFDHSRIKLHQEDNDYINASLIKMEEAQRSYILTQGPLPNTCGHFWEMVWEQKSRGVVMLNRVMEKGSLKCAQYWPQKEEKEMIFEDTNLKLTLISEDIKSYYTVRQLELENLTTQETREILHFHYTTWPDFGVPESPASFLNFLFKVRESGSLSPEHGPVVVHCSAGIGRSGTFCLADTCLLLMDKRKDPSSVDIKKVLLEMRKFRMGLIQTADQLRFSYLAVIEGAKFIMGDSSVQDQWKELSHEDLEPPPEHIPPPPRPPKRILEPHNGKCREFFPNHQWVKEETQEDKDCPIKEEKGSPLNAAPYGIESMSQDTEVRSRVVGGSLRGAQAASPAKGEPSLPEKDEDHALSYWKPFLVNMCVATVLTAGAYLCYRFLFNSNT
As to the kind of experiment: PTP1B inhibition, colorimetric pNPP assay. It is filed as biochemical. The note with it: for inhibition at 20 µg/mL: PTP1B, compound at 20 μg/mL; for PTP1B inhibitory activity (in words): pNPP assay, tested at 20 μg/mL.

The next series deals with T2, TCPTP (GST-TCPTP) (Homo sapiens, UniProt P17706).
T2 sequence (P17706 1-415): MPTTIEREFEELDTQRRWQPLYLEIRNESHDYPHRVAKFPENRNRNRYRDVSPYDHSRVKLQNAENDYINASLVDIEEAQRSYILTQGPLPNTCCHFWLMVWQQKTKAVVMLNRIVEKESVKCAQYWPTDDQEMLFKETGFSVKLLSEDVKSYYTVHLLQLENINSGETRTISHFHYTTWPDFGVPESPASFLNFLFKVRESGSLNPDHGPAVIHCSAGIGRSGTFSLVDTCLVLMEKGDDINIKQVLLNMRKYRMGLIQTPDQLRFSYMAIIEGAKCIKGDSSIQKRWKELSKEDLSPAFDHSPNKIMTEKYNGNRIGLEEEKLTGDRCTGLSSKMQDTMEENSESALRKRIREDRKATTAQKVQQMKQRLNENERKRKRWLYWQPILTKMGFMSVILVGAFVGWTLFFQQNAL
As to the kind of experiment: TCPTP inhibition, colorimetric pNPP assay. Type of series: biochemical. The note with it: for IC50: pNPP substrate, means ± SD of three replications, PC = oleanolic acid; for TCPTP/PTP1B (selectivity, fold): ratio of IC50 TCPTP to IC50 PTP1B. How it is done: (§1) In addition to potency improvements, we investigated the selectivity of three representative compounds, namely, 1, 46 and 49 against other PTPs (TCPTP, SHP-1, SHP-2, LAR). […] Besides TCPTP, we tested the inhibitory activity of these compounds on other three homogenous enzymes SHP-1, SHP-2, and LAR [25].
(§2) A colorimetric assay to measure inhibition against PTP1B and TCPTP was performed in 96-well plates. Briefly, the tested compounds were solubilized in DMSO and serially diluted into concentrations for the inhibitory test. The assays were carried out in a final volume of 100 μL containing 50 mmol/L MOPS, pH 6.5, 2 mmol/L pNPP, 30 nmol/L GST-PTP1B or GST-TCPTP,and 2% DMSO, and the catalysis of pNPP was continuously monitored on a SpectraMax 340 microplate reader at 405 nm for 3 min at 30 °C. The IC50 value was calculated from the nonlinear curve fitting of the percent inhibition [inhibition (%)] vs. the inhibitor concentration using the Equation (1): Inhibition (%) = 100/[1 + (IC50/[I]k)] (1) where k is the Hill coefficient. To study the inhibition on the other PTPase family members, SHP1, SHP2 and LAR were prepared and assays were performed according to procedures described previously. Briefly, the enzymatic activity of the SHP1, SHP2 and LARwere determined at 30 °C by monitoring the dephosphorylation of substrate 3-o-methylfluorescein phosphate (OMFP), product was then detected at a 485 nm excitation wavelength and 530 nm emission wavelength by the EnVision multilabe plate reader (Perkin-Elmer Life Sciences, Boston, MA, USA). The assays were carried out in a final volume of 50 μL containing 50 mmol/L MOPS, pH 6.8, 10 μmol/L OMFP, 20 nmol/L recombinant enzyme, 2 mmol/L dithiothreitol , 1 mmol/L EDTA, and 2% DMSO. The initial rate of the dephosphorylation was presented by the early linear region of the enzymatic reaction kinetic curve, the inhibitory activity of the compound was continuously monitored.

The next series deals with T3, SHP-1 (Homo sapiens, UniProt P29350).
T3 construct: made in house
T3 sequence (P29350 whole entry): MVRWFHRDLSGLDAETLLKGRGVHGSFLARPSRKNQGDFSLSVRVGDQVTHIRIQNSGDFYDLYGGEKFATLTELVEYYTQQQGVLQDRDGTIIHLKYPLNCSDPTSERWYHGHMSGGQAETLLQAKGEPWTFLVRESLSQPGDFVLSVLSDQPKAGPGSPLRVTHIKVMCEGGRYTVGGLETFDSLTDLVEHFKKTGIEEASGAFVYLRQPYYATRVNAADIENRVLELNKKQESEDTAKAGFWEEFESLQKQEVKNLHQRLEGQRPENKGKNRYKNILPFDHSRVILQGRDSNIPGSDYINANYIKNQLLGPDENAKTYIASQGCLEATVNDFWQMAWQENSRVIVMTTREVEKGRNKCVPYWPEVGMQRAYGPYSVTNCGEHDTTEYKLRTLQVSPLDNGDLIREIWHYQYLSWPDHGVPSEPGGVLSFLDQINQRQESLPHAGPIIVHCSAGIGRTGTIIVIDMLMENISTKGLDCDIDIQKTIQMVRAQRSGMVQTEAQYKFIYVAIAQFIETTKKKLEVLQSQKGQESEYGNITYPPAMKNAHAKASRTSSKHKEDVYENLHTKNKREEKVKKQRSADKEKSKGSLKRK
As to the kind of experiment: SHP-1 inhibition, OMFP substrate assay. Type of series: biochemical. The note with it: for IC50: OMFP substrate, means ± SD of three replications, PC = Na3VO4. As for the experimental part: as §1, §2

The next series has as its target T4, SHP-2 (Homo sapiens, UniProt Q06124).
T4 construct: made in house
T4 sequence (Q06124 1-593): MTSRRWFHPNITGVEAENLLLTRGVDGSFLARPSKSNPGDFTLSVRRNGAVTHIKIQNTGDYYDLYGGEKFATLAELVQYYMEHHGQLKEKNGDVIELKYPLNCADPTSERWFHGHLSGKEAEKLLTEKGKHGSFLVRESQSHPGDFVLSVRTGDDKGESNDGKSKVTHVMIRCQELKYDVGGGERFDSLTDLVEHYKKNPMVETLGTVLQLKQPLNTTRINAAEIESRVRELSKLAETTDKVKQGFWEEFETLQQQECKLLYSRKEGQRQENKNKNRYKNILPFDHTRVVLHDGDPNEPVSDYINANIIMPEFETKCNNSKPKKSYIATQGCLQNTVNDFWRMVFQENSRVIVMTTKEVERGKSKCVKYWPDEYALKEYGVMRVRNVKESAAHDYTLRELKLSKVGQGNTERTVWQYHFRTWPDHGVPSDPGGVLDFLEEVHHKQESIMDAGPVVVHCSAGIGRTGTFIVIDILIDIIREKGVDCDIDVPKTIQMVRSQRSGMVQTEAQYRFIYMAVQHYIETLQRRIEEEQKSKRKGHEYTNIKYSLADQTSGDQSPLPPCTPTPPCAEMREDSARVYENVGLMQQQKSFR
Nature of the series: SHP-2 inhibition, OMFP substrate assay. It is filed as biochemical. As to conditions: for IC50: OMFP substrate, means ± SD of three replications, PC = Na3VO4. As for the experimental part: as §1, §2

The target of another series is T5, LAR (Homo sapiens, UniProt P10586).
T5 sequence (P10586 1352-1607 limits assumed): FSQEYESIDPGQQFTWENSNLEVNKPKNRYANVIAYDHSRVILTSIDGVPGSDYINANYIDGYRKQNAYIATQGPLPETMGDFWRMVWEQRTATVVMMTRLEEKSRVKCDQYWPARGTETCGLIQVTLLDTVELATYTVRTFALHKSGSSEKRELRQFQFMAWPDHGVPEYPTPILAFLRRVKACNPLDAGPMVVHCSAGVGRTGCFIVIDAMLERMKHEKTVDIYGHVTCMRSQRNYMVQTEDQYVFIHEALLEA
As to the kind of experiment: LAR inhibition, OMFP substrate assay. Type of series: biochemical. The note with it: NA = no activity (inhibitory ratio lower than 50% at the dose of 20 μg/mL), PC = Na3VO4. As for the experimental part: as §1
as §2, with “To study the inhibition on the other PTPase family members, SHP1, SHP2 and LAR were prepared and assays were performed according to procedures described previously.” left out, “The assays were carried out in a final volume of 50 μL containing 50 mmol/L MOPS, pH 6.8, 10 μmol/L OMFP, 20 nmol/L recombinant enzyme, 2 mmol/L dithiothreitol , 1 mmol/L EDTA, and 2% DMSO. The initial rate of the dephosphorylation was presented by the early linear region of the enzymatic reaction kinetic curve, the inhibitory activity of the compound was continuously monitored.” left out

Setting [1] is: pNPP substrate, means ± SD of three replications, OA/PC = oleanolic acid positive control.

In general, inhibition refers to how much of the control response was suppressed. Higher therefore signals a strong effect. As a reminder, the IC50 is the concentration at which inhibition is half-maximal. A word on the melting point: it is the temperature, or range, at which the solid turns liquid.

Take `O=C(O)c1ccc(C2Nc3cccc4cccc(c34)N2)cc1` [Compound 1, 4-(2,3-dihydro-1H-perimidin-2-yl)benzoic acid]: 20 µg/mL produced 98.6% inhibition against PTP1B (GST-PTP1B) (pNPP substrate). For the same molecule, the IC50 was 8.34 ± 1.07 µM at PTP1B (GST-PTP1B) (setting [1]), 4.83 ± 0.9 µM against TCPTP (GST-TCPTP), 23.3 ± 2.03 µM against SHP-1 and 31.2 ± 7.72 µM at SHP-2. Besides, the “TCPTP/PTP1B (selectivity, fold)” value at TCPTP (GST-TCPTP) was 0.58.
`CCOC(=O)CCC(=O)Nc1ccc(C2Nc3cccc4cccc(c34)N2)cc1` [Compound 28] displayed a melting point of 165.8 to 170.9 °C. For the same molecule, on PTP1B (GST-PTP1B) (pNPP substrate), the inhibition at 20 µg/mL came to 29.7%.
Molecule `O=C(O)CCCCOc1ccc(C2Nc3cccc4cccc(c34)N2)cc1` [Compound 25, 5-[4-(2,3-Dihydro-1H-perimidin-2-yl)phenoxy]pentanoic acid] yielded a melting point of 165.9 to 167.8 °C. On PTP1B (GST-PTP1B) (pNPP substrate), testing at 20 µg/mL gave an inhibition of 32.1%. At PTP1B (GST-PTP1B), the “PTP1B inhibitory activity (in words)” value is “no inhibitory activity”.
The molecule `N#Cc1cc(C2Nc3cccc4cccc(c34)N2)ccc1F` [Compound 6, 5-(2,3-Dihydro-1H-perimidin-2-yl)-2-fluorobenzonitrile] gave a melting point of 204.4 to 208.4 °C. The inhibition at 20 µg/mL against PTP1B (GST-PTP1B) (pNPP substrate) is 31.6%.
On to `CCOC(=O)CCCCCNC(=O)c1ccc(C2Nc3cccc4cccc(c34)N2)nc1` [Compound 45, Ethyl 6-[6-(2,3-dihydro-1H-perimidin-2-yl)nicotinamido]hexanoate], for which the melting point lay within 119.3 to 123.8 °C. On PTP1B (GST-PTP1B) (pNPP substrate), this molecule showed an inhibition at 20 µg/mL of 10.8%.
`O=C(O)CC(=O)Nc1ccc(C2Nc3cccc4cccc(c34)N2)cc1` [Compound 31, 3-{[4-(2,3-Dihydro-1H-perimidin-2-yl)phenyl]amino}-3-oxopropanoic acid] returned a melting point of 221.3 to 223.4 °C. Besides, the inhibition at 20 µg/mL at PTP1B (GST-PTP1B) (pNPP substrate) turned out to be 96.8%. The IC50 at PTP1B (GST-PTP1B) (setting [1]) is 6.45 ± 0.42 µM.
Regarding `CCOC(=O)CCCCOc1ccc(C2Nc3cccc4cccc(c34)N2)cc1` [Compound 22, Ethyl 5-[4-(2,3-dihydro-1H-perimidin-2-yl)phenoxy]pentanoate], the melting point fell in the range of 93.8 to 96.4 °C. This molecule came in with an inhibition at 20 µg/mL against PTP1B (GST-PTP1B) (pNPP substrate) of 2.04%. In addition, the “PTP1B inhibitory activity (in words)” value on PTP1B (GST-PTP1B) is “did not show inhibitory activity”.
In the case of `O=C(O)C1CCCN1C(=O)c1ccc(C2Nc3cccc4cccc(c34)N2)cc1` (stereo not drawn) [Compound 15, 1-(4-(2,3-Dihydro-1H-perimidin-2-yl)benzoyl)pyrrolidine-2-carboxylic acid], the melting point was 233.1 to 234.3 °C. Also, at 20 µg/mL the inhibition against PTP1B (GST-PTP1B) (pNPP substrate) was 84.2%. At PTP1B (GST-PTP1B) (setting [1]), this molecule yielded a half-inhibitory concentration (IC50) of 20.2 ± 1.94 µM.
`CCOC(=O)CCCC(=O)Nc1ccc(C2Nc3cccc4cccc(c34)N2)cc1` [Compound 29, Ethyl 5-{[4-(2,3-dihydro-1H-perimidin-2-yl]phenyl)amino}-5-oxopentanoate] had a melting point of 139.9 to 142.5 °C. Further, at 20 µg/mL the inhibition against PTP1B (GST-PTP1B) (pNPP substrate) was 2.92%.
Regarding `O=C(O)CCCCCNC(=O)c1ccc(C2Nc3cccc4cccc(c34)N2)nc1` [Compound 49, 6-[6-(2,3-Dihydro-1H-perimidin-2-yl)nicotinamido]hexanoic acid], the melting point fell in the range of 86.7 to 88.4 °C. In addition, 20 µg/mL produced 99.4% inhibition on PTP1B (GST-PTP1B) (pNPP substrate). Also, at PTP1B (GST-PTP1B) (setting [1]), the IC50 was determined as 0.59 ± 0.05 µM and the “IC50 PTP1B” value was “submicromolar”. At LAR, the “IC50 LAR” value is given as “no visible activities”. At TCPTP (GST-TCPTP), the midpoint of inhibition, the IC50, lay at 1.24 ± 0.12 µM and the “TCPTP/PTP1B (selectivity, fold)” value is 2.10. The molecule also displayed an IC50 against SHP-1 of 2.72 ± 0.3 µM. The “selectivity for PTP1B over SHP-1” value on SHP-1 (from IC50 values) was “about 4 fold”. At SHP-2, half-maximal inhibition (IC50) required 2.5 ± 0.22 µM. The “selectivity for PTP1B over SHP-2” value on SHP-2 (from IC50 values) is listed as “about 4 fold”.
Regarding `CCOC(=O)CCCCCNC(=O)c1ccc(C2Nc3cccc4cccc(c34)N2)cc1` [Compound 14, Ethyl 6-(4-(2,3-dihydro-1H-perimidin-2-yl)benzamido)hexanoate], the melting point was 145.8 to 147.4 °C. In addition, the inhibition at 20 µg/mL against PTP1B (GST-PTP1B) (pNPP substrate) amounted to 35.6%.
Consider `CC(C)(C)OC(=O)NCCC(=O)Nc1ccc(C2Nc3cccc4cccc(c34)N2)cc1` [Compound 34], for which the melting point lay in the range of 111.1 to 113.7 °C. On PTP1B (GST-PTP1B) (pNPP substrate), this molecule displayed an inhibition at 20 µg/mL of 12.6%. For the same molecule, the “PTP1B inhibitory activity (in words)” value at PTP1B (GST-PTP1B) is reported as “no inhibitory activity”.
Molecule `O=C(O)CCCCCNC(=O)c1ccc(C2Nc3cccc4cccc(c34)N2)cc1` [Compound 19, 6-(4-(2,3-Dihydro-1H-perimidin-2-yl)benzamido)hexanoic acid] registered a melting point of 90.8 to 91.9 °C. In addition, the inhibition at 20 µg/mL on PTP1B (GST-PTP1B) (pNPP substrate) came out at 95.3%. At PTP1B (GST-PTP1B) (setting [1]), the IC50 turned out to be 7.82 ± 0.27 µM.
